Test results reported in PubChem BioAssay (NCI).
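Grown in 96-well plates, cells were treated for 48 hours with each compound at five concentrations. Insufficient inhibition: endpoint recorded as highest concentration tested. GI50: concentration for 50% inhibition of growth. TGI: total growth inhibition.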

Experiments:
Test in all cases: growth of human tumour cells (NCI), 48 h
A549 NSCLC = tested on: A549 NSCLC
HCT-116 colon = tested on: HCT-116 colon
KM12 colon = tested on: KM12 colon
NCI/ADR-RES ovarian = tested on: NCI/ADR-RES ovarian
OVCAR-4 ovarian = tested on: OVCAR-4 ovarian
RXF 393 renal = tested on: RXF 393 renal
SK-MEL-2 melanoma = tested on: SK-MEL-2 melanoma
SK-OV-3 ovarian = tested on: SK-OV-3 ovarian
SNB-75 CNS = tested on: SNB-75 CNS
UACC-62 melanoma = tested on: UACC-62 melanoma

SMILES	GI50 (A549 NSCLC)	TGI (A549 NSCLC)	GI50 (HCT-116 colon)	TGI (HCT-116 colon)	GI50 (KM12 colon)	TGI (KM12 colon)	GI50 (NCI/ADR-RES ovarian)	TGI (NCI/ADR-RES ovarian)	GI50 (OVCAR-4 ovarian)	TGI (OVCAR-4 ovarian)	GI50 (RXF 393 renal)	TGI (RXF 393 renal)	GI50 (SK-MEL-2 melanoma)	TGI (SK-MEL-2 melanoma)	GI50 (SK-OV-3 ovarian)	TGI (SK-OV-3 ovarian)	GI50 (SNB-75 CNS)	TGI (SNB-75 CNS)	GI50 (UACC-62 melanoma)	TGI (UACC-62 melanoma)
CC[n+]1c(/C=C/C=C2\N(C)c3ccccc3C2(C)C)sc2ccccc21	4.77 µM	10 µM	4.15 µM	8.16 µM	4.46 µM	8.7 µM	4.26 µM	8.9 µM	3.85 µM	7.19 µM	4.33 µM	10.3 µM	5.23 µM	11 µM	5.71 µM	13.9 µM	3.7 µM	7.5 µM	4.03 µM	8.32 µM
c1ccc2c3c([nH]c2c1)C(c1ccc(C2NCCc4c2[nH]c2ccccc42)cc1)NCC3 (centres undefined)	1.1 µM	2.54 µM	0.17 µM	0.335 µM	1.07 µM	2.36 µM	2.1 µM	7.81 µM	1.14 µM	2.53 µM	1.31 µM	2.67 µM	1.7 µM	3.57 µM	1.88 µM	4.14 µM	0.691 µM	2.07 µM	0.749 µM	2.13 µM
O=S(=O)(c1cnccc1N1CCN(CCO)CC1)N1CCCC1		> 100 µM		> 100 µM		> 100 µM		> 100 µM		> 100 µM		> 100 µM		> 100 µM		> 100 µM		> 100 µM		> 100 µM
NS(=O)(=O)OCCCCCCCOS(N)(=O)=O		729 µM		820 µM		1000 µM		1050 µM		1110 µM		660 µM		836 µM		1570 µM		711 µM		412 µM
Cn1cc(C2=C(c3cn(CCCCCSC(=N)N)c4ccccc34)C(=O)NC2=O)c2ccccc21	4.4 µM	8.65 µM	1.08 µM	4.53 µM	2.08 µM	5.41 µM	8.18 µM	21 µM	3.16 µM	7.32 µM	2.55 µM	5.68 µM	3.13 µM	6.43 µM	2.99 µM	6.16 µM	1.01 µM	4.36 µM	3.87 µM	7.25 µM
CCCCCCCCCCCC[n+]1ccc2ccccc2c1	1.75 µM	3.38 µM	0.857 µM	2.37 µM	0.397 µM	1.51 µM	9.37 µM	35.5 µM	0.486 µM	2.33 µM	1.36 µM	2.88 µM	1.5 µM	3.88 µM	1.43 µM	3.1 µM	1.14 µM	2.78 µM	0.343 µM	1.63 µM
O=C1NC(=NCCCc2ccccc2)S/C1=C\c1ccc2ncccc2c1	4.68 µM	13.8 µM	3.6 µM	14.1 µM	8.84 µM	> 25 µM	6.5 µM	17.1 µM	3.72 µM	13.6 µM	3.89 µM	10.4 µM	4.96 µM	9.67 µM	5.33 µM	12.2 µM	2.3 µM	6.69 µM	4.65 µM	10.9 µM
CSC(=Nc1ccccc1)/N=C(\SCc1ccccc1)N(C)C		4.63 µM		1.38 µM		2.76 µM		3.77 µM		2.43 µM		2.3 µM		3.44 µM		6.69 µM		3.25 µM		1.87 µM
CC1=C(C(=O)Nc2ccc(Cl)c(C(=O)OC(C)C)c2)SCCO1		65.8 µM		> 77.4 µM		> 100 µM		> 91.8 µM		> 97.6 µM		> 97.7 µM		75.4 µM		> 81.1 µM		> 100 µM		93.2 µM
CC(=O)[O][Hg][c]1c(C)c(C)cc(C)c1C	5.55 µM	15 µM	1.85 µM	3.66 µM	2.22 µM	6.26 µM	2.96 µM	9.14 µM	0.566 µM	1.37 µM	0.482 µM	1.24 µM	1.53 µM	3.3 µM	3.63 µM	6.96 µM	1.48 µM	2.99 µM	1.69 µM	4.59 µM
COc1cc2c(=O)[nH]c3cc([N+](=O)[O-])ccc3c2cc1[N+](=O)[O-]	4.11 µM	> 100 µM	2.25 µM	> 100 µM	4.67 µM	> 100 µM	5.29 µM	> 100 µM	5.16 µM	> 100 µM	6.99 µM	92.2 µM	22.9 µM	> 100 µM	8.7 µM	38.2 µM	2.08 µM	20 µM	4.55 µM	> 100 µM
CN(C)C(=S)SCC(=O)Nc1ccccc1		> 100 µM		> 100 µM		> 100 µM		> 100 µM		> 100 µM		> 100 µM		> 100 µM		> 100 µM		> 100 µM		> 100 µM
CCC(=O)c1c(C(F)(F)F)n([O-])c2cc(F)c(F)cc2[n+]1=O	2.43 µM	6.72 µM	0.366 µM	1.51 µM	1.51 µM	3.13 µM	0.822 µM	2.35 µM	1.83 µM	4.1 µM	1.37 µM	3.25 µM	0.663 µM	> 20 µM	1.86 µM	3.88 µM	2.58 µM	4.44 µM	0.571 µM	1.33 µM
CN(Cc1cnc2nc(N)nc(N)c2n1)c1ccc(C(=O)NC(CCC(=O)O)C(=O)O)cc1Br (centres undefined)	< 0.01 µM	> 100 µM	< 0.01 µM	2.42 µM	< 0.01 µM	11.6 µM	< 0.01 µM	> 100 µM	13.7 µM	> 100 µM	0.459 µM	5.01 µM	< 0.01 µM	> 100 µM	0.047 µM	> 100 µM		5.06 µM	< 0.01 µM	7.35 µM
O=C1c2ccccc2C(=O)c2c(OCCOCCO)cccc21		> 100 µM		> 100 µM		> 100 µM		> 100 µM		> 100 µM		> 100 µM		> 100 µM		> 100 µM		> 100 µM		19.1 µM
